# Results: US20070072251A1, “In vivo imaging using peptide derivatives” (CTT Cancer Targeting Technologies OY, priority 2003, published 2007)
# Where a SMILES comes first, the peptide text is derived from it. Bridges are numbered along the chain shown (N, C = ends). Where no end group is shown, it is not given here. The star is where a group is joined. DTPA = O=C(O)CN(CCN(CC(=O)O)CC(=O)O)CCN(CC(=O)O)CC(=O)*
# Experiments:
# [1] = Tumor targeting of radiolabelled LLG derivatives in mouse model of human myelomonocytic leukemia (gamma imaging, tissue counting); format: in vivo; details: mouse, in vivo, total radioactivity; at 24 hrs, intravenous injection, U937 model; read-out: absolute tumor-to-blood ratio
# Excerpt: (§1) I-125 label, mouse model of human myelomonocytic leukemia. Planar gamma image. In these figures animals have been injected with radiolabelled peptide and anesthesized animals have been imaged under gamma camera (pinhole collimator, Picker SX-300 gamma camera).
# (§2) The radiolabelled peptide derivatives were imaged at different time points using gamma camera in order to study tumor uptake in vivo as a function of time. After last imaging, tumor tissue were extirpated and counted for radioactivity. Detailed microdistribution was studied using quantitative autoradiography.
# (§3) The peptide was labelled using In-111 label and direct iodination, as well as cDTPA.
# (§4) The peptide was labelled using In-111 label and direct iodination and cDTPA. […] In this model absolute tumor-to-blood ratio was 4.7 at 24 hrs.
# [2] = tested on: human myelomonocytic leukemia U937 cell line; test: as above; format: in vivo
# Excerpt: as §1, §2, §3, §4
# [3] = tested on: E. coli abscess; test: LLG targeting to E. coli abscess in rabbits (gamma camera imaging, gamma-counter biodistribution); format: in vivo, New Zealand White rabbits
# Description: (§5) In this experiment, the targeting of LLG to sites of inflammation was examined in Wistar rats and New Zealand White rabbits, by inducing an abscess with approximately 1×10^9 colony-forming units of Staphylococcus aureus or Escherichia coli injected into the left tight muscle. During the procedure, the animals were anesthetized. After 24 hours, when swelling of the muscle was apparent, the In-111 radiolabeled peptide CPCFLLGCC was injected i.v. and accumulation of the peptide was followed with gamma camera imaging. The peptide was tested using 3 animals in both animal species.
# The animals were followed-up for 4 hours. In late images urinary excretion disturbed the imaging, but signal-to-background ratio remained high. No other targets than abscess could be detected. Imaging would have been even more successful, if the rabbits would have been catheterized (or bladder emptied) before imaging session.
# (§6) After the imaging period, animals were sacrificed, various tissues were collected and the accumulated radioactivity was measured using a gamma-counter. In FIG. 7A, the amount of accumulated peptide (expressed as percentage of injected dose/weight of the tissue measured; % ID/g) is shown for certain tissues of rabbits (mean of 3 animals). […] In these animals, the corresponding ratios were 4.5 and 2.0 for muscle and blood, respectively.
# [4] = tested on: S. aureus abscess; test: LLG targeting to S. aureus abscess in rats (gamma camera imaging, gamma-counter biodistribution); format: in vivo, Wistar rats
# Description: as §5
# In rats assay, animals were followed-up for 2 hours after peptide injection. […] However, signal-to-background ratio remained high, and as in rabbits, no other targets than abscess could be detected.
# as §6
# [5] = tested on: accumulation of cells in peritoneal cavity; test: Inhibition of leukocyte migration into thioglycolate inflamed peritoneal cavity; format: in vivo, Balb/c mice; details: 1 mg/kg iv
# Description: To induce inflammation, female Balb/c mice were injected intraperitoneally with 1 ml of 3% Thioglycolate Broth (TG), three animals/group. Mice in the control group were injected iv with plain vehicle PBS-10% DMSO, and mice in the peptide group were injected iv with 1 mg/kg YADGACPCFLLGCC in PBS-10% DMSO. After 60 or 120 minutes, the mice were sacrificed. Cells in peritoneal cavity were collected by lavage with 5 ml PBS-5 mM EDTA, and counted with a hemocytometer.
# In this experiment different cell populations were not distinguished. However, once again, YADGACPCFLLGCC reduced the accumulation of cells in experimental inflammation in vivo by 78% after 60 minutes and 52% after 120 minutes (FIG. 9).
# [6] = tested on: THP-1 cell line; test: Blocking of LLG-GFP binding to THP-1 cell line; format: cell-based
# Description: What has been observed is that at 50 μM YLLG concentration 95% of LLG-GFPs binding is been blocked. When concentrations are been lowered to 20 μM still 70% inhibition occurs. […] However, due to the unspecific binding of peptide to the plastic walls of the container and the relative high concentrations of LLG-GFP needed for signal nanomolar scale, experiments can not been performed with this setup on its current already un-optimized state.
# [7] = Biodistribution of I-125 labelled LLG in mice; format: in vivo; details: 30 min and 180 min after tail vein injection
# Description: LLG (YADGACPCFLLGCC) was labelled with I-125, and the purified peptide (40 μg; ˜500 kBq) was injected into the tail vein of mice in the volume of […]. At 30 min and 180 min after peptide injection, the mice were sacrificed and their blood and tissues were collected to measure the radioactivity. Results are expressed as percentage of injected dose per 1.0 g tissue (% D/g) (FIG. 11). All values are indicated as the mean±SD of 3 mice.
# [8] = tested on: integrin I-domain; test: BIACORE affinity of LLG to integrin; format: binding; details: 134 nM-134 μM; not detectable due to the small size of the peptide
# Description: We examined the affinity of LLG to integrin using BIACORE. In this method, purified integrin I-domain was immobilized on the gold coated carboxymethylated dextran chip. The immobilization succeeded, and in various channels a RU between 2000-4000 was obtained. Various concentrations (3.3 nM-33 μM) of LLG-GST or GST were tested for their ability to bind to the I-domain. Reaction buffer was 10 mM HEPES (pH 7.4)-150 mM NaCl, with or without 1 mM MgCl2. […] Addition of detergent P20 0.05% could not diminish the background.
# In another set of experiment, plain LLG peptide was used for affinity testing. The concentration of the tested peptide varied between 134 nM-134 μM. […] The BIACORE method is currently under development, and we intend to study the affinity again with a peptide coupled to a higher molecular weight, inert carrier molecule.
# [9] = % ID/g, mean of 3 animals, after imaging period
compound,measurement,setting,value
"CC(C)C[C@@H]1NC(=O)[C@H](CC(C)C)NC(=O)[C@H](Cc2ccccc2)NC(=O)[C@@H]2CSSC[C@@H](C(=O)O)NC(=O)[C@H](CSSC[C@H](NC(=O)[C@H](C)NC(=O)CNC(=O)[C@H](CC(=O)O)NC(=O)[C@H](C)NC(=O)[C@H](Cc3ccc(O)cc3)NC(=O)CN(CCN(CCN(CC(=O)O)CC(=O)O)CC(=O)O)CC(=O)O)C(=O)N3CCC[C@H]3C(=O)N2)NC(=O)CNC1=O [In-111-YADGA LLG, metal not drawn] ({DTPA}-YADGACPCFLLGCC-OH; disulfide 6-13, 8-14 (inferred); N-terminus and C-terminus assumed)",tissue to tissue ratio at 24 h,[1],4.7
same,tumor targeting (gamma image),"[2]; at 3 hrs after intravenous injection, FIG. 1",clearly tumor targeting
"In-111 radiolabeled peptide CPCFLLGCC: In-111 radiolabeled peptide CPCFLLGCC, cDTPA chelation (cysteine pairing not given here; also: In-111 radiolabel, cDTPA chelation)",signal-to-background ratio in late images,[3],remained high
same,accumulation in abscess compared to blood,[3]; [9],2.3 fold
same,accumulation in abscess compared to muscle,[3]; [9],21.7 fold
same,abscess targeting in gamma camera imaging,"[3]; E. coli abscess in thigh muscle, i.v., followed 4 hours","specific targeting into tight muscle, which was clearly visible within one hour"
same,clearance,[3]; i.v.,rapid clearance through kidneys
same,signal-to-background ratio in late images,[4],remained high
same,abscess targeting in gamma camera imaging,"[4]; S. aureus abscess, followed 2 hours",specific targeting
same,accumulation ratio abscess to blood,[4]; after imaging period,2.0
same,accumulation ratio abscess to muscle,[4]; after imaging period,4.5
YADGACPCFLLGCC,reduction of accumulation of cells in experimental inflammation,[5]; after 60 minutes,78%
same,reduction of accumulation of cells in experimental inflammation,[5]; after 120 minutes,52%
same,inhibition of LLG-GFPs binding,[6]; 20 μM YLLG,70%
same,LLG-GFPs binding blocked,[6]; 50 μM YLLG,95%
same,IC 50 of blocking LLG-GFP binding,[6]; judged from FIG. 12,on nanomolar scale
I-125-YADGA LLG peptide: YADGACPCFLLGCC labelled with I-125 by direct iodination (cysteine pairing not given here; also: I-125 label by direct iodination),tumor targeting (planar gamma image),"[2]; at 24 hrs after intravenous injection, FIGS. 2-3",tumor targeting
same,clearance,[7],rapid clearance through kidneys
same,tissue accumulation,[7]; 40 μg,did not accumulate in any tissue
"CPCFLLGCC [nonapeptide with two disulfide bridges, ligand to leukocyte β2 integrins]",specific binding to immobilized integrin I-domain,[8],no specific binding could be detected
